This note sets out measurements from US20220354826A1, “PLEUROMUTILIN (E)-4-(1-IMIDAZOYLMETHYL )CINNAMIC ACID ESTER WITH ANTI-DRUG RESISTANT BACTERIA ACTIVITY AND A METHOD OF PREPARING THE SAME” (SHAANXI UNIVERSITY OF SCIENCE AND TECHNOLOGY, priority 2021, published 2022).

Holding throughout (format): cell-based
The test system of test [1] is multi-resistant Staphylococcus aureus 171 (MRSA-171). In words: Paper diffusion method drug sensitivity test, MRSA-171. As to conditions: for inhibitory effect (in words): multi-drug resistant Staphylococcus aureus 171, paper diffusion; for Zone of inhibition: strain MRSA-171, drug sensitive paper 30 μg/tablet, 6.35 mm, LB plate, 37° C., 24 h, ≥17 mm sensitive, 15-16 mm intermediary, ≤14 mm resistance. How it is done:
(§1) The antimicrobial efficacy was determined by a paper diffusion method drug sensitivity test.
(§2) Experimental strains: multi-resistant Staphylococcus aureus 171, multi-resistant Staphylococcus aureus 222, multi-resistant Staphylococcus aureus 575. The experimental strains were identified by Huashan Hospital Affiliated to Fudan University (Institute of Antibiotic of Fudan University).
(§3) Drug sensitive paper: The drug sensitive paper is a special drug sensitive paper with a diameter of 6.35 mm and a water absorption of 0.02 mL. The control drug was vancomycin (30 μg/tablet); the test drugs were pleuromutilin (E)-4-(1-imidazoyl-methyl)cinnamic acid ester (30 μg/tablet).
(§4) The experimental strains were inoculated in non-selective medium and placed in air at 37° C. for 24 h. Pick a single colony that grows well and inoculate it into broth medium, incubate at 35° C.±2° C. for 6 hours, and use LA broth medium to calibrate the concentration of the bacterial solution to 0.5 Mie turbidimetric tube ([…]). A bacterial suspension is obtained.
(§5) LB dry powder was weighed, sterilized at 103.4 Kpa, 121.3° C. high-pressure steam for 15 min, and then placed it in a 40° C.-50° C. water bath. A sterile empty plate (inner diameter 9 cm) was placed on the surface of the ultra-clean table water table, and […] to the plate. The thickness of each plate was 3 mm to 4 mm. After the plate was cooled at room temperature, it was stored in the refrigerator at 2° C.-8° C. A sterile cotton swab was used to dip the bacterial solution and to evenly coat the surface of the LB plate 3 times. After inoculation of the bacterial suspension, the LB plate was dried at room temperature for 3 min to 5 min. Sterile forceps were used to closely attach the antibacterial drug paper to the dish. The dish was put upside down and placed in a 37° C. incubator for 24 h. The results were observed by measuring the diameter. Taking 0.5% DMSO solution as a negative control, the antibacterial activity is expressed by the diameter of the inhibition zone. The inhibition zone ≥17 mm, sensitive; the inhibition zone of 15 mm-16 mm, intermediary; the inhibition zone ≤14 mm, drug resistance.

The subject of test [2] is multi-resistant Staphylococcus aureus 222 (MRSA-222). In words: Paper diffusion method drug sensitivity test, MRSA-222. As to conditions: for inhibitory effect (in words): multi-drug resistant Staphylococcus aureus 222, paper diffusion; for Zone of inhibition: strain MRSA-222, drug sensitive paper 30 μg/tablet, 6.35 mm, LB plate, 37° C., 24 h, ≥17 mm sensitive, 15-16 mm intermediary, ≤14 mm resistance. How it is done: as §1, §2, §3, §4, §5

Test [3] deals with multi-resistant Staphylococcus aureus 575 (MRSA-575). In words: Paper diffusion method drug sensitivity test, MRSA-575. As to conditions: for inhibitory effect (in words): multi-drug resistant Staphylococcus aureus 575, paper diffusion; for Zone of inhibition: strain MRSA-575, drug sensitive paper 30 μg/tablet, 6.35 mm, LB plate, 37° C., 24 h, ≥17 mm sensitive, 15-16 mm intermediary, ≤14 mm resistance. How it is done: as §1, §2, §3, §4, §5

`C=C[C@]1(C)C[C@@H](OC(=O)COC(=O)/C=C/c2ccc(Cn3ccnc3)cc2)[C@]2(C)[C@H](C)CC[C@]3(CCC(=O)[C@H]32)[C@@H](C)[C@@H]1O`: the “inhibitory effect (in words)” value in test [1], in test [2] and in test [3] was “strong inhibitory effects” throughout. Also, the Zone of inhibition amounted to 16 mm in test [1], 17 mm in test [2] and 15 mm in test [3].

Take `O=C(O)/C=C/c1ccc(Cn2ccnc2)cc1` [(E)-4-(1-imidazoylmethyl)cinnamic acid]: the “inhibitory effect (in words)” value in test [1], in test [2] and in test [3] was “no inhibitory effect” throughout. For the same compound, the Zone of inhibition in test [1], in test [2] and in test [3] was 0 mm in each case.

Turning to `C=C[C@]1(C)C[C@@H](OC(=O)CO)[C@]2(C)[C@H](C)CC[C@]3(CCC(=O)[C@H]32)[C@@H](C)[C@@H]1O` [Pleuromutilin], the “inhibitory effect (in words)” value in test [1], in test [2] and in test [3] was “no inhibitory effect” in each case. Besides, the Zone of inhibition in test [1], in test [2] and in test [3] was 0 mm in each case.

On to `CN[C@H](CC(C)C)C(=O)N[C@H]1C(=O)N[C@@H](CC(N)=O)C(=O)N[C@H]2C(=O)N[C@H]3C(=O)N[C@H](C(=O)N[C@H](C(=O)O)c4cc(O)cc(O)c4-c4cc3ccc4O)[C@H](O)c3ccc(c(Cl)c3)Oc3cc2cc(c3O[C@@H]2O[C@H](CO)[C@@H](O)[C@H](O)[C@H]2O[C@H]2C[C@](C)(N)[C@H](O)[C@H](C)O2)Oc2ccc(cc2Cl)[C@H]1O` [Vancomycin, vancomycin], for which the Zone of inhibition came to 17 mm in test [1], 18 mm in test [2] and 21 mm in test [3].
